# Test system: 2B4/Mcl-1 cells apoptosis, absorbance viability
# Experiment: Mcl-1-selective cell killing, 2B4 lines – absorbance, 2B4/Mcl1 vs 2B4/Bcl-2, selectivity assay for MCL1-BIM inhibitor project, late-stage follow-up (AID 602164)
row,SMILES,IC50 [µM]
1,Oc1c(C(c2cccs2)N2CCCCC2)ccc2cccnc12 (stereo not drawn),4.4
2,CC(C)Oc1ccc(C(Nc2ccccn2)c2ccc3cccnc3c2O)cc1 (stereo not drawn),2.3
3,Cc1ccnc(NC(c2cccs2)c2ccc3cccnc3c2O)c1 (stereo not drawn),2.4
4,Oc1c(C(c2cccs2)N2CCN(c3ccccn3)CC2)ccc2cccnc12 (stereo not drawn),3.7
5,CCN1CCN(C(c2cccs2)c2ccc3cccnc3c2O)CC1 (stereo not drawn),3.8
6,OCCN1CCN(C(c2cccs2)c2ccc3cccnc3c2O)CC1 (stereo not drawn),5.1
7,Oc1c(C(Nc2ccccn2)c2cccs2)ccc2cccnc12 (stereo not drawn),3.1
8,CN1CCN(C(c2ccc(F)cc2)c2ccc3cccnc3c2O)CC1 (stereo not drawn),4

# From PubChem BioAssay AID602164 (The Scripps Research Institute Molecular Screening Center, 2012)
